Consider two molecules from article doi:10.1101/2024.07.10.602875v1 (biorxiv, 2024).

Each structure is given as a SMILES string.

Assay [1] has as its target T1, TgIMPα (Toxoplasma gondii, UniProt A0A125YID0).
T1 sequence (A0A125YID0 1-545): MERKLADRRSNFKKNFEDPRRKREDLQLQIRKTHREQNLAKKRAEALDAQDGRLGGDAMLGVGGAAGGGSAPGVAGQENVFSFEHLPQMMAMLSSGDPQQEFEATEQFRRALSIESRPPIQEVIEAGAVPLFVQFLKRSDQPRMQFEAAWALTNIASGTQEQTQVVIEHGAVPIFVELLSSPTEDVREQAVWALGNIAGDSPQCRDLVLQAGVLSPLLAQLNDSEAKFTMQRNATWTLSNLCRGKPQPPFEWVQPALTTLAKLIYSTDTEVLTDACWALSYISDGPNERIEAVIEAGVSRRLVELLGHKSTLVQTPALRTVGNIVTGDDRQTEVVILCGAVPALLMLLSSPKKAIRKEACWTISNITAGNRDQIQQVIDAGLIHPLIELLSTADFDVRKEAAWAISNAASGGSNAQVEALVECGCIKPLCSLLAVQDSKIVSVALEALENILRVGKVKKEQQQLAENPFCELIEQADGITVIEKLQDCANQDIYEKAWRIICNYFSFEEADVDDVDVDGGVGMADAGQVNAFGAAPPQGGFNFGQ
In words: intrinsic tryptophan fluorescence quenching. It counts as binding.

Another assay addresses T2, PfIMPα (Plasmodium falciparum, UniProt Q8IAW0).
T2 sequence (Q8IAW0 1-545): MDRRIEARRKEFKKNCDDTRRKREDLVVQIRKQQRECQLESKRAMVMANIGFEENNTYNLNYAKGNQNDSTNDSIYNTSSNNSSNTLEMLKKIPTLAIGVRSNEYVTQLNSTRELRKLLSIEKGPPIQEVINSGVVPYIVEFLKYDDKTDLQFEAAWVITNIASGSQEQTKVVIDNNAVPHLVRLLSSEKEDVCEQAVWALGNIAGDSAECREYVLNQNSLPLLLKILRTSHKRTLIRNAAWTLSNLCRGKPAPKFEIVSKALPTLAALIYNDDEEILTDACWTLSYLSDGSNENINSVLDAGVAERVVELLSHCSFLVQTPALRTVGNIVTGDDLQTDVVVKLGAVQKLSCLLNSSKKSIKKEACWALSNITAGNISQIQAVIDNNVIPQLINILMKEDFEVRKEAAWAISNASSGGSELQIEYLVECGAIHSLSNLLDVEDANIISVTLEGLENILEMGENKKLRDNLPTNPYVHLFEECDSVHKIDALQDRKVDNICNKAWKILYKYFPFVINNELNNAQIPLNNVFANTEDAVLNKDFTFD
In words: intrinsic tryptophan fluorescence quenching. It is filed as binding.

The target in assay [2] is T1, TgIMPα. Put plainly: AlphaScreen, inhibition of IMPα:NLS interaction. It is filed as binding. On the technique in general: In Alpha technology, singlet oxygen from a donor bead excites a nearby acceptor bead.
The test system of a further assay is T. gondii. In words: microbe, parasite or virus in culture. Also on record: species or system T. gondii RH-luciferase in HFF. The settings on record: Toxoplasma gondii, read-out: Cell viability IC50 (µM).

As a reminder, the IC50 is the point on the concentration scale where inhibition reaches its midpoint. Regarding `CC(C)(C)c1ccc(S(=O)(=O)/C=C/C#N)cc1` [Bay 11-7085], the results for the half-inhibitory concentration (IC50) against TgIMPα [1] and against PfIMPα were 27.7 ± 9.4 µM and 19.9 ± 3.7 µM, respectively.

In the case of `Cc1ccc(S(=O)(=O)/C=C/C#N)cc1` [Bay 11-7082], the IC50 at TgIMPα [2] came out at 8.2 ± 1.3 µM; with T. gondii it was 1.06 ± 0.07 µM; against TgIMPα [1], 17.5 ± 3.3 µM.
